#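 Grown in 96-well plates, cells were treated for 48 hours with each compound at five concentrations. Insufficient inhibition: endpoint recorded as highest concentration tested. TGI marks complete inhibition of growth.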
# Tested on: SK-MEL-2 melanoma
# Assay: growth of human tumour cells (NCI), 48 h
row,SMILES,TGI
1,[N-]=[N+]=NC(c1ccccc1)(c1ccccc1)c1ccccc1,29.3 µM
2,CC(=O)c1c2c(c3ccccc3c1O)O[C@@H]1OCC[C@H]21,> 100 µM
3,C(=C(c1ccc(OC2CCCCO2)cc1)c1ccc(OC2CCCCO2)cc1)c1ccccc1 (stereo not given),2.77 µM
4,C[C@]12CC[C@H](O)CC1=CC[C@@H]1[C@@H]2CC[C@]2(C)C(=N/N)/C(=N\O)C[C@@H]12,> 100 µM
5,O=C(c1ccccn1)C1(N2CCCCC2)CCCCC1,> 100 µM
6,Cc1ccc(NC(=O)c2ccc(OP(=O)(O)Nc3ccc(C)cc3)cc2)cc1,> 100 µM
7,Cc1ccnc(NS(=O)(=O)c2ccc(N=[N+]=[N-])cc2)n1,> 100 µM
8,Cc1ccccc1C(=N)c1ccccc1Cc1cccc2ccccc12,35.1 µM
9,COc1ccc(-c2[nH]c3c4c(nc5c(c24)C(=O)CC(C)(C)C5)CC(C)(C)C3)cc1,> 100 µM
10,Cc1ccccc1OC(C)C(=O)NN1C(=O)CSC1c1ccccc1 (stereo not given),> 100 µM
11,CC(C)=CCC[C@@H](C)c1c(O)c(O)c(C)c2nccnc12,58 µM
12,S=C(N/N=C(/c1ccccc1)c1ccccn1)N(Cc1ccccn1)Cc1ccccn1,3.04 µM
13,O=c1[nH]c(=S)[nH]c2c1C(c1ccc([N+](=O)[O-])cc1)c1c([nH]c(=S)[nH]c1=O)O2,> 100 µM
14,Cn1c(=O)c2c(nc3n2CC(C(=O)O)N3)n(C)c1=O (stereo not given),> 100 µM
15,Cc1oc2c(cc(O)c3cc(O)ccc32)c2cccc1-2,> 100 µM
16,NC(N)=Nc1ccc(CC(N)NCC(=O)O)cc1 (stereo not given),> 25 µM
17,O=C(OCc1ccccc1)N1CCNCCN(C(=O)OCc2ccccc2)CCNCC1,42.3 µM
18,COP(=O)(OC)C1=c2c(C)noc2=C2C=COC2C1=O (stereo not given),> 100 µM
19,N#CC(NCc1cccc(CNC(C#N)c2ccccc2)c1)c1ccccc1 (stereo not given),> 100 µM

# Tested on: SW-620 colon
# Assay: growth of human tumour cells (NCI), 48 h
row,SMILES,TGI
1,CCOC(=O)c1c(CN2CCCC2)n(-c2ccccc2)c2cc(Br)c(O)cc12,42.5 µM
2,Nn1c(-c2ccccc2)n[nH]c1=O,> 100 µM
3,Nn1c(Nc2ccc(S(=O)(=O)Nc3ncccn3)cc2)nnc(/C=C/c2c(O)ccc3ccccc23)c1=O,> 100 µM
4,Cc1cc(-c2nc3ccc(F)cc3s2)ccc1NC(=O)[C@H](C)N,15 µM
5,C=CC1(CC/C(=C\[N+](=O)[O-])c2ccc(OC)c(OC)c2)OCC(C)(C)CO1,> 100 µM
6,Nc1c(-c2ccc(Cl)c(Cl)c2)c2ccc([N+](=O)[O-])cc2c(=O)n1-c1nc2ccccc2s1,> 100 µM
7,NS(=O)(=O)c1nnc(NC(=O)Nc2ccc(Cl)c(Cl)c2)s1,> 100 µM
8,COC(=O)c1c(C)nc2c1cc(O)c1[nH]c(C)c(C)nc12,> 100 µM
9,O=[N+]([O-])c1cc(C=NC23CC4CC(CC(C4)C2)C3)ccc1Cl,27.7 µM
10,COc1cc(S(=O)(=O)Nc2nc(-c3ccc(N4C(=O)C(CC(=O)O)SC4c4cccs4)cc3)cs2)ccc1Cl (stereo not given),78.8 µM
11,CCCCCC1=CC(=O)C1(Cl)Cl,40.5 µM
12,CC(=O)N(C(=O)CC(=O)N1N=C(c2ccccc2)C(N=Nc2ccccc2[N+](=O)[O-])C1=O)c1ccc(Cl)cc1 (stereo not given),> 10 µM
13,CC(=O)N1C(C(=O)NC2CCCCC2)CSC1c1ccccc1 (stereo not given),> 100 µM
14,Oc1ccccc1CNCc1nc2ccccc2[nH]1,> 100 µM
15,COc1ncc(/C=C2\OC(=O)c3ccccc32)c(OC)n1,> 100 µM
16,CC(=O)Nn1c(=S)[nH]c2ccccc21,> 100 µM
17,C[C@]12CCC3C4=C(CCC3C1CCC2=O)C(=O)[C@H]1O[C@H]1C4=O (stereo not given in full),4.98 µM
18,CCCCOC(=O)Nc1ccc(S(=O)(=O)Nc2ccccc2Cl)cc1,31.3 µM
19,Oc1[nH]c2ccccc2c1N=Nc1nc(-c2ccc(Br)cc2)cs1,> 100 µM
20,CC(C)c1cc2c(cc1S(=O)(=O)O)[C@@]1(C)CCC[C@@](C)(C(=O)O)C1CC2 (stereo not given in full),> 100 µM
21,N#CC(Cc1ccccc1)N(CCC1=CCCCC1)C(c1ccccc1)c1ccccc1 (stereo not given),> 100 µM
22,C/C(=C\CBr)CCC(Br)C(C)(C)Br (stereo not given),> 100 µM

row,SMILES,TGI
1,C#CCn1c(=O)c2ccccc2n(CC#C)c1=O,> 10 µM
2,O=C1CCC2(c3ccc(Cl)cc3)Nc3ccncc3N12 (stereo not given),> 10 µM
3,[N-]=[N+]=NC(c1ccccc1)(c1ccccc1)c1ccccc1,40.5 µM
4,CC(=O)c1c2c(c3ccccc3c1O)O[C@@H]1OCC[C@H]21,> 100 µM
5,C(=C(c1ccc(OC2CCCCO2)cc1)c1ccc(OC2CCCCO2)cc1)c1ccccc1 (stereo not given),1.62 µM
6,C[C@]12CC[C@H](O)CC1=CC[C@@H]1[C@@H]2CC[C@]2(C)C(=N/N)/C(=N\O)C[C@@H]12,> 100 µM
7,O=C(c1ccccn1)C1(N2CCCCC2)CCCCC1,> 100 µM
8,Cc1ccc(NC(=O)c2ccc(OP(=O)(O)Nc3ccc(C)cc3)cc2)cc1,> 100 µM
9,Cc1ccnc(NS(=O)(=O)c2ccc(N=[N+]=[N-])cc2)n1,> 100 µM
10,Cc1ccccc1C(=N)c1ccccc1Cc1cccc2ccccc12,66 µM
11,COc1ccc(-c2[nH]c3c4c(nc5c(c24)C(=O)CC(C)(C)C5)CC(C)(C)C3)cc1,> 100 µM
12,Cc1ccccc1OC(C)C(=O)NN1C(=O)CSC1c1ccccc1 (stereo not given),> 100 µM
13,CC(C)=CCC[C@@H](C)c1c(O)c(O)c(C)c2nccnc12,> 100 µM
14,S=C(N/N=C(/c1ccccc1)c1ccccn1)N(Cc1ccccn1)Cc1ccccn1,7.72 µM
15,O=c1[nH]c(=S)[nH]c2c1C(c1ccc([N+](=O)[O-])cc1)c1c([nH]c(=S)[nH]c1=O)O2,> 100 µM
16,Cn1c(=O)c2c(nc3n2CC(C(=O)O)N3)n(C)c1=O (stereo not given),> 100 µM
17,Cc1oc2c(cc(O)c3cc(O)ccc32)c2cccc1-2,> 100 µM
18,NC(N)=Nc1ccc(CC(N)NCC(=O)O)cc1 (stereo not given),> 25 µM
19,O=C(OCc1ccccc1)N1CCNCCN(C(=O)OCc2ccccc2)CCNCC1,> 100 µM
20,COP(=O)(OC)C1=c2c(C)noc2=C2C=COC2C1=O (stereo not given),> 100 µM
21,N#CC(NCc1cccc(CNC(C#N)c2ccccc2)c1)c1ccccc1 (stereo not given),61.4 µM

# Tested on: DU-145 prostate
# Assay: growth of human tumour cells (NCI), 48 h
row,SMILES,TGI
1,CCOC(=O)c1c(CN2CCCC2)n(-c2ccccc2)c2cc(Br)c(O)cc12,39.5 µM
2,Nn1c(-c2ccccc2)n[nH]c1=O,> 100 µM
3,Nn1c(Nc2ccc(S(=O)(=O)Nc3ncccn3)cc2)nnc(/C=C/c2c(O)ccc3ccccc23)c1=O,> 100 µM
4,Cc1cc(-c2nc3ccc(F)cc3s2)ccc1NC(=O)[C@H](C)N,26 µM
5,C=CC1(CC/C(=C\[N+](=O)[O-])c2ccc(OC)c(OC)c2)OCC(C)(C)CO1,33.1 µM
6,Nc1c(-c2ccc(Cl)c(Cl)c2)c2ccc([N+](=O)[O-])cc2c(=O)n1-c1nc2ccccc2s1,> 100 µM
7,NS(=O)(=O)c1nnc(NC(=O)Nc2ccc(Cl)c(Cl)c2)s1,> 100 µM
8,COC(=O)c1c(C)nc2c1cc(O)c1[nH]c(C)c(C)nc12,> 100 µM
9,O=[N+]([O-])c1cc(C=NC23CC4CC(CC(C4)C2)C3)ccc1Cl,> 60.4 µM
10,COc1cc(S(=O)(=O)Nc2nc(-c3ccc(N4C(=O)C(CC(=O)O)SC4c4cccs4)cc3)cs2)ccc1Cl (stereo not given),> 100 µM
11,CCCCCC1=CC(=O)C1(Cl)Cl,26.1 µM
12,CC(=O)N(C(=O)CC(=O)N1N=C(c2ccccc2)C(N=Nc2ccccc2[N+](=O)[O-])C1=O)c1ccc(Cl)cc1 (stereo not given),> 10 µM
13,CC(=O)N1C(C(=O)NC2CCCCC2)CSC1c1ccccc1 (stereo not given),> 100 µM
14,Oc1ccccc1CNCc1nc2ccccc2[nH]1,> 100 µM
15,COc1ncc(/C=C2\OC(=O)c3ccccc32)c(OC)n1,> 100 µM
16,CC(=O)Nn1c(=S)[nH]c2ccccc21,> 100 µM
17,C[C@]12CCC3C4=C(CCC3C1CCC2=O)C(=O)[C@H]1O[C@H]1C4=O (stereo not given in full),8.41 µM
18,CCCCOC(=O)Nc1ccc(S(=O)(=O)Nc2ccccc2Cl)cc1,> 100 µM
19,Oc1[nH]c2ccccc2c1N=Nc1nc(-c2ccc(Br)cc2)cs1,68 µM
20,CC(C)c1cc2c(cc1S(=O)(=O)O)[C@@]1(C)CCC[C@@](C)(C(=O)O)C1CC2 (stereo not given in full),> 100 µM
21,N#CC(Cc1ccccc1)N(CCC1=CCCCC1)C(c1ccccc1)c1ccccc1 (stereo not given),> 100 µM
22,C/C(=C\CBr)CCC(Br)C(C)(C)Br (stereo not given),> 100 µM

row,SMILES,TGI
1,C#CCn1c(=O)c2ccccc2n(CC#C)c1=O,> 10 µM
2,O=C1CCC2(c3ccc(Cl)cc3)Nc3ccncc3N12 (stereo not given),> 10 µM
3,[N-]=[N+]=NC(c1ccccc1)(c1ccccc1)c1ccccc1,36.1 µM
4,CC(=O)c1c2c(c3ccccc3c1O)O[C@@H]1OCC[C@H]21,> 100 µM
5,C(=C(c1ccc(OC2CCCCO2)cc1)c1ccc(OC2CCCCO2)cc1)c1ccccc1 (stereo not given),2.11 µM
6,C[C@]12CC[C@H](O)CC1=CC[C@@H]1[C@@H]2CC[C@]2(C)C(=N/N)/C(=N\O)C[C@@H]12,> 100 µM
7,O=C(c1ccccn1)C1(N2CCCCC2)CCCCC1,> 100 µM
8,Cc1ccc(NC(=O)c2ccc(OP(=O)(O)Nc3ccc(C)cc3)cc2)cc1,> 100 µM
9,Cc1ccnc(NS(=O)(=O)c2ccc(N=[N+]=[N-])cc2)n1,> 100 µM
10,Cc1ccccc1C(=N)c1ccccc1Cc1cccc2ccccc12,42.5 µM
11,COc1ccc(-c2[nH]c3c4c(nc5c(c24)C(=O)CC(C)(C)C5)CC(C)(C)C3)cc1,> 100 µM
12,Cc1ccccc1OC(C)C(=O)NN1C(=O)CSC1c1ccccc1 (stereo not given),> 100 µM
13,CC(C)=CCC[C@@H](C)c1c(O)c(O)c(C)c2nccnc12,> 100 µM
14,S=C(N/N=C(/c1ccccc1)c1ccccn1)N(Cc1ccccn1)Cc1ccccn1,4.42 µM
15,O=c1[nH]c(=S)[nH]c2c1C(c1ccc([N+](=O)[O-])cc1)c1c([nH]c(=S)[nH]c1=O)O2,> 100 µM
16,Cn1c(=O)c2c(nc3n2CC(C(=O)O)N3)n(C)c1=O (stereo not given),> 100 µM
17,Cc1oc2c(cc(O)c3cc(O)ccc32)c2cccc1-2,> 100 µM
18,NC(N)=Nc1ccc(CC(N)NCC(=O)O)cc1 (stereo not given),> 25 µM
19,O=C(OCc1ccccc1)N1CCNCCN(C(=O)OCc2ccccc2)CCNCC1,> 100 µM
20,COP(=O)(OC)C1=c2c(C)noc2=C2C=COC2C1=O (stereo not given),> 100 µM
21,N#CC(NCc1cccc(CNC(C#N)c2ccccc2)c1)c1ccccc1 (stereo not given),> 100 µM

# Reference: PubChem BioAssay (NCI)
